Literature values, collected in patent US20100144626A1, “Treatment of Multi-Drug Resistant Bacterial Infections” (priority 2006, published 2010).
≈ marks a conversion by molar mass, not a printed value.

Columns and labels:
[1] = in vivo; cited from earlier work
[2] = in vivo, cited from earlier work
[3] = test system: MRSA; settings: cited from earlier work
[4] = in vivo; cited from earlier work; remark: listed apart in the source

Clc1ccccc1C(c1ccccc1)(c1ccccc1)n1ccnc1 [Clotrimazole, 1-[(2-chlorophenyl)diphenylmethyl]-1H-imidazole]
concentration in the stratum corneum [1]: 100 mcg/cm3
concentration in the stratum reticulare [1]: 0.5-1 mcg/cm3
concentration in the subcutis [1]: 0.1 mcg/cm3

Clc1ccc(COC(Cn2ccnc2)c2ccc(Cl)cc2Cl)cc1 (stereo not shown) [Econazole]
tolerability of single oral dose ([2]; po): tolerated
number of metabolites [2]: more than 20

Clc1ccc(COC(Cn2ccnc2)c2ccc(Cl)cc2Cl)c(Cl)c1 (stereo not shown) [Miconazole, 1-[2-(2,4-dichlorophenyl)-2-[(2,4-dichlorophenyl)methoxy]ethyl]-1H-imidazole]
anti-MRSA activity in presence of lipophilic a-tocopherol (vitamin E) ([3]; Lee et al. 1999): completely suppressed
minimum inhibitory concentration against MRSA ([3]; Lee et al., J. Microbiol. Biotechnol. 9 (1999), estimated): 0.78 µg/mL (≈ 1.87 µM)
biological half life, first phase of triphasic elimination [4]: 0.4 hours
biological half life, second phase of triphasic elimination [4]: 2.1 hours
biological half life, third phase of triphasic elimination [4]: 24.1 hours
